According to ChEMBL document CHEMBL3608278 (J Med Chem, 2015):
pIC50: −log10 of the molar value.

How the values were obtained:
[1] = biological target: T1, Potassium voltage-gated channel subfamily A member 3 (Homo sapiens, UniProt P22001); design: species or system Blood
[2] = biological target: T1, Potassium voltage-gated channel subfamily A member 3; assay: cell-based; design: species or system Blood
[3] = biological target: T1, Potassium voltage-gated channel subfamily A member 3; assay type: cell-based, CHO-K1

T1 sequence (P22001 whole entry): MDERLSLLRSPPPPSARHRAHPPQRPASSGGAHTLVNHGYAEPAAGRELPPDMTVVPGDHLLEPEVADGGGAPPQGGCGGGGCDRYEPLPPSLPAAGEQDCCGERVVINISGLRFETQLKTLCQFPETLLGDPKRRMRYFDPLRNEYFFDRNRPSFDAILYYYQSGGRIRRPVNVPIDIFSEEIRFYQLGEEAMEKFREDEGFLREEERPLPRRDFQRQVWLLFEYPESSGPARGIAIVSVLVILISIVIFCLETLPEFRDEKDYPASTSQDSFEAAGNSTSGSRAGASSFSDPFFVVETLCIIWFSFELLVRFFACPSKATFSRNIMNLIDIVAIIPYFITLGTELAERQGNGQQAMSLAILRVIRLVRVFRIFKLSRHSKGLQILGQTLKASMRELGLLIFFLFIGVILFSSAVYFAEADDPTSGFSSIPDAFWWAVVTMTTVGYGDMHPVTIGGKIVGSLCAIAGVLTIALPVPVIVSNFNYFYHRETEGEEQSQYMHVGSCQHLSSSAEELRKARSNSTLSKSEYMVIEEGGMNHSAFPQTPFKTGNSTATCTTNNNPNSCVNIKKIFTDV

Compound	pIC50 [1]	pIC50 [2]	pIC50 [3]
CC[C@H](C)[C@@H]1NC(=O)[C@@H](NC(=O)[C@H](CO)NC(=O)[C@@H](N)CCCNC(=N)N)CSSC[C@@H](C(=O)O)NC(=O)[C@H]([C@@H](C)O)NC(=O)CNC(=O)[C@@H]2CSSC[C@@H]3NC(=O)[C@H](CCC(N)=O)NC(=O)[C@H](Cc4ccccc4)NC(=O)[C@H](C)NC(=O)[C@H]([C@@H](C)O)NC(=O)[C@H](CSSC[C@H](NC(=O)[C@H](Cc4ccccc4)NC(=O)[C@H](CO)NC(=O)[C@H](CC(C)C)NC(=O)[C@H](CCCNC(=N)N)NC(=O)[C@H](Cc4ccc(O)cc4)NC(=O)[C@H](CCCCN)NC(=O)[C@H](CCSC)NC(=O)[C@H](CO)NC(=O)[C@H](Cc4cnc[nH]4)NC(=O)[C@H](CCCCN)NC3=O)C(=O)N[C@@H](CCCNC(=N)N)C(=O)N[C@@H](CCCCN)C(=O)N[C@@H]([C@@H](C)O)C(=O)N2)NC(=O)[C@H](CCCNC(=N)N)NC(=O)[C@H](CO)NC(=O)[C@H](CCCCN)NC(=O)[C@@H]2CCCN2C(=O)[C@H](Cc2cccc3ccccc23)NC(=O)[C@H]([C@@H](C)O)NC(=O)[C@H](CC(=O)O)NC1=O	7.74	7.94	< 8.48
CC[C@H](C)[C@@H]1NC(=O)[C@@H](NC(=O)[C@H](CO)NC(=O)[C@@H](N)CCCNC(=N)N)CSSC[C@@H](C(=O)O)NC(=O)[C@H]([C@@H](C)O)NC(=O)CNC(=O)[C@@H]2CSSC[C@@H]3NC(=O)[C@H](CCC(N)=O)NC(=O)[C@H](Cc4ccccc4)NC(=O)[C@H](C)NC(=O)[C@H]([C@@H](C)O)NC(=O)[C@H](CSSC[C@H](NC(=O)[C@H](Cc4ccccc4)NC(=O)[C@H](CO)NC(=O)[C@H](CC(C)C)NC(=O)[C@H](CCCNC(=N)N)NC(=O)[C@H](Cc4ccc(O)cc4)NC(=O)[C@H](CCCCN)NC(=O)[C@H](CCSC)NC(=O)[C@H](Cc4cccc5ccccc45)NC(=O)[C@H](Cc4cnc[nH]4)NC(=O)[C@H](CCCCN)NC3=O)C(=O)N[C@@H](CCCNC(=N)N)C(=O)N[C@@H](CCCCN)C(=O)N[C@@H]([C@@H](C)O)C(=O)N2)NC(=O)[C@H](CCCNC(=N)N)NC(=O)[C@H](CO)NC(=O)[C@H](CCCCN)NC(=O)[C@@H]2CCCN2C(=O)[C@H]([C@@H](C)CC)NC(=O)[C@H]([C@@H](C)O)NC(=O)[C@H](CC(=O)O)NC1=O	< 7.00	< 7.00	< 8.48
CC[C@H](C)[C@@H]1NC(=O)[C@@H](NC(=O)[C@H](CO)NC(=O)[C@@H](N)CCCNC(=N)N)CSSC[C@@H](C(=O)O)NC(=O)[C@H]([C@@H](C)O)NC(=O)CNC(=O)[C@@H]2CSSC[C@@H]3NC(=O)[C@H](CCC(N)=O)NC(=O)[C@H](Cc4ccccc4)NC(=O)[C@H](C)NC(=O)[C@H]([C@@H](C)O)NC(=O)[C@H](CSSC[C@H](NC(=O)[C@H](Cc4ccccc4)NC(=O)[C@H](CO)NC(=O)[C@H](CC(C)C)NC(=O)[C@H](CCCNC(=N)N)NC(=O)[C@H](Cc4ccc(O)cc4)NC(=O)[C@H](Cc4cccc5ccccc45)NC(=O)[C@H](CCSC)NC(=O)[C@H](CO)NC(=O)[C@H](Cc4cnc[nH]4)NC(=O)[C@H](CCCCN)NC3=O)C(=O)N[C@@H](CCCNC(=N)N)C(=O)N[C@@H](CCCCN)C(=O)N[C@@H]([C@@H](C)O)C(=O)N2)NC(=O)[C@H](CCCNC(=N)N)NC(=O)[C@H](CO)NC(=O)[C@H](CCCCN)NC(=O)[C@@H]2CCCN2C(=O)[C@H]([C@@H](C)CC)NC(=O)[C@H]([C@@H](C)O)NC(=O)[C@H](CC(=O)O)NC1=O	< 7.00	< 7.00	< 8.48
CC[C@H](C)[C@@H]1NC(=O)[C@@H](NC(=O)[C@H](CO)NC(=O)[C@@H](N)CCC(=O)O)CSSC[C@@H](C(=O)O)NC(=O)[C@H]([C@@H](C)O)NC(=O)CNC(=O)[C@@H]2CSSC[C@@H]3NC(=O)[C@H](CCC(N)=O)NC(=O)[C@H](Cc4ccccc4)NC(=O)[C@H](C)NC(=O)[C@H]([C@@H](C)O)NC(=O)[C@H](CSSC[C@H](NC(=O)[C@H](Cc4ccccc4)NC(=O)[C@H](CO)NC(=O)[C@H](CC(C)C)NC(=O)[C@H](CCCNC(=N)N)NC(=O)[C@H](Cc4ccc(O)cc4)NC(=O)[C@H](CCCCN)NC(=O)[C@H](CCSC)NC(=O)[C@H](CO)NC(=O)[C@H](Cc4cnc[nH]4)NC(=O)[C@H](CCCCN)NC3=O)C(=O)N[C@@H](CCCNC(=N)N)C(=O)N[C@@H](CCCCN)C(=O)N[C@@H]([C@@H](C)O)C(=O)N2)NC(=O)[C@H](CCCNC(=N)N)NC(=O)[C@H](CO)NC(=O)[C@H](CCCCN)NC(=O)[C@@H]2CCCN2C(=O)[C@H]([C@@H](C)CC)NC(=O)[C@H]([C@@H](C)O)NC(=O)[C@H](CC(=O)O)NC1=O	9.60	9.67	9.82

Next, values leading:

pIC50 [1]	pIC50 [2]	pIC50 [3]	Compound
8.02	7.54	8.84	CC[C@H](C)[C@@H]1NC(=O)[C@@H](NC(=O)[C@H](CO)NC(=O)[C@@H](N)CCCNC(=N)N)CSSC[C@@H](C(=O)O)NC(=O)[C@H]([C@@H](C)O)NC(=O)CNC(=O)[C@@H]2CSSC[C@@H]3NC(=O)[C@H](Cc4cccc5ccccc45)NC(=O)[C@H](Cc4ccccc4)NC(=O)[C@H](C)NC(=O)[C@H]([C@@H](C)O)NC(=O)[C@H](CSSC[C@H](NC(=O)[C@H](Cc4ccccc4)NC(=O)[C@H](CO)NC(=O)[C@H](CC(C)C)NC(=O)[C@H](CCCNC(=N)N)NC(=O)[C@H](Cc4ccc(O)cc4)NC(=O)[C@H](CCCCN)NC(=O)[C@H](CCSC)NC(=O)[C@H](CO)NC(=O)[C@H](Cc4cnc[nH]4)NC(=O)[C@H](CCCCN)NC3=O)C(=O)N[C@@H](CCCNC(=N)N)C(=O)N[C@@H](CCCCN)C(=O)N[C@@H]([C@@H](C)O)C(=O)N2)NC(=O)[C@H](CCCNC(=N)N)NC(=O)[C@H](CO)NC(=O)[C@H](CCCCN)NC(=O)[C@@H]2CCCN2C(=O)[C@H]([C@@H](C)CC)NC(=O)[C@H]([C@@H](C)O)NC(=O)[C@H](CC(=O)O)NC1=O
8.09	8.18	9.07	CC[C@H](C)[C@@H]1NC(=O)[C@@H](NC(=O)[C@H](CO)NC(=O)[C@@H](N)CCCNC(=N)N)CSSC[C@@H](C(=O)O)NC(=O)[C@H]([C@@H](C)O)NC(=O)CNC(=O)[C@@H]2CSSC[C@@H]3NC(=O)[C@H](CCC(N)=O)NC(=O)[C@H](Cc4ccccc4)NC(=O)[C@H](C)NC(=O)[C@H]([C@@H](C)O)NC(=O)[C@H](CSSC[C@H](NC(=O)[C@H](Cc4ccccc4)NC(=O)[C@H](CO)NC(=O)[C@H](CC(C)C)NC(=O)[C@H](CCCNC(=N)N)NC(=O)[C@H](Cc4ccc(O)cc4)NC(=O)[C@H](CCCCN)NC(=O)[C@H](Cc4cccc5ccccc45)NC(=O)[C@H](CO)NC(=O)[C@H](Cc4cnc[nH]4)NC(=O)[C@H](CCCCN)NC3=O)C(=O)N[C@@H](CCCNC(=N)N)C(=O)N[C@@H](CCCCN)C(=O)N[C@@H]([C@@H](C)O)C(=O)N2)NC(=O)[C@H](CCCNC(=N)N)NC(=O)[C@H](CO)NC(=O)[C@H](CCCCN)NC(=O)[C@@H]2CCCN2C(=O)[C@H]([C@@H](C)CC)NC(=O)[C@H]([C@@H](C)O)NC(=O)[C@H](CC(=O)O)NC1=O
10.08	10.21	9.99	CC[C@H](C)[C@@H]1NC(=O)[C@@H](NC(=O)[C@H](CO)NC(=O)[C@@H](N)CCCNC(=N)N)CSSC[C@@H](C(=O)O)NC(=O)[C@H]([C@@H](C)O)NC(=O)CNC(=O)[C@@H]2CSSC[C@@H]3NC(=O)[C@H](CCC(N)=O)NC(=O)[C@H](Cc4ccccc4)NC(=O)[C@H](C)NC(=O)[C@H]([C@@H](C)O)NC(=O)[C@H](CSSC[C@H](NC(=O)[C@H](Cc4ccccc4)NC(=O)[C@H](CO)NC(=O)[C@H](Cc4cccc5ccccc45)NC(=O)[C@H](CCCNC(=N)N)NC(=O)[C@H](Cc4ccc(O)cc4)NC(=O)[C@H](CCCCN)NC(=O)[C@H](CCSC)NC(=O)[C@H](CO)NC(=O)[C@H](Cc4cnc[nH]4)NC(=O)[C@H](CCCCN)NC3=O)C(=O)N[C@@H](CCCNC(=N)N)C(=O)N[C@@H](CCCCN)C(=O)N[C@@H]([C@@H](C)O)C(=O)N2)NC(=O)[C@H](CCCNC(=N)N)NC(=O)[C@H](CO)NC(=O)[C@H](CCCCN)NC(=O)[C@@H]2CCCN2C(=O)[C@H]([C@@H](C)CC)NC(=O)[C@H]([C@@H](C)O)NC(=O)[C@H](CC(=O)O)NC1=O
8.55	8.97	9.65	CC[C@H](C)[C@@H]1NC(=O)[C@@H](NC(=O)[C@H](CO)NC(=O)[C@@H](N)CCCNC(=N)N)CSSC[C@@H](C(=O)O)NC(=O)[C@H]([C@@H](C)O)NC(=O)CNC(=O)[C@@H]2CSSC[C@@H]3NC(=O)[C@H](CCC(N)=O)NC(=O)[C@H](Cc4ccccc4)NC(=O)[C@H](C)NC(=O)[C@H]([C@@H](C)O)NC(=O)[C@H](CSSC[C@H](NC(=O)[C@H](Cc4cccc5ccccc45)NC(=O)[C@H](CO)NC(=O)[C@H](CC(C)C)NC(=O)[C@H](CCCNC(=N)N)NC(=O)[C@H](Cc4ccc(O)cc4)NC(=O)[C@H](CCCCN)NC(=O)[C@H](CCSC)NC(=O)[C@H](CO)NC(=O)[C@H](Cc4cnc[nH]4)NC(=O)[C@H](CCCCN)NC3=O)C(=O)N[C@@H](CCCNC(=N)N)C(=O)N[C@@H](CCCCN)C(=O)N[C@@H]([C@@H](C)O)C(=O)N2)NC(=O)[C@H](CCCNC(=N)N)NC(=O)[C@H](CO)NC(=O)[C@H](CCCCN)NC(=O)[C@@H]2CCCN2C(=O)[C@H]([C@@H](C)CC)NC(=O)[C@H]([C@@H](C)O)NC(=O)[C@H](CC(=O)O)NC1=O
8.09	8.33	< 8.48	CC[C@H](C)[C@@H]1NC(=O)[C@@H](NC(=O)[C@H](CO)NC(=O)[C@@H](N)CCCNC(=N)N)CSSC[C@@H](C(=O)O)NC(=O)[C@H]([C@@H](C)O)NC(=O)CNC(=O)[C@@H]2CSSC[C@@H]3NC(=O)[C@H](CCC(N)=O)NC(=O)[C@H](Cc4ccccc4)NC(=O)[C@H](C)NC(=O)[C@H]([C@@H](C)O)NC(=O)[C@H](CSSC[C@H](NC(=O)[C@H](Cc4ccccc4)NC(=O)[C@H](CO)NC(=O)[C@H](CC(C)C)NC(=O)[C@H](CCCNC(=N)N)NC(=O)[C@H](Cc4ccc(O)cc4)NC(=O)[C@H](CCCCN)NC(=O)[C@H](CCSC)NC(=O)[C@H](CO)NC(=O)[C@H](Cc4cnc[nH]4)NC(=O)[C@H](CCCCN)NC3=O)C(=O)N[C@@H](Cc3cccc4ccccc34)C(=O)N[C@@H](CCCCN)C(=O)N[C@@H]([C@@H](C)O)C(=O)N2)NC(=O)[C@H](CCCNC(=N)N)NC(=O)[C@H](CO)NC(=O)[C@H](CCCCN)NC(=O)[C@@H]2CCCN2C(=O)[C@H]([C@@H](C)CC)NC(=O)[C@H]([C@@H](C)O)NC(=O)[C@H](CC(=O)O)NC1=O
